Test system: colon tumor cells re-implanted in secondary recipients
Test: Secondary transplant of GPR49 mAb+irinotecan treated tumor cells
Type: in vivo, mouse
Settings: 140 day follow-up
Excerpt: Isolated tumor cells from control or GPR49 mAb+irinotecan treated tumors from the in vivo study outlined in Example 3 were harvested, pooled, dissociated and re-implanted in a limiting dilution secondary transplant assay to measure cancer stem cell frequency. For each treatment group, 8 mice were implanted with 10, 30, 100 cells. […]

In the case of `CCc1c2c(nc3ccc(OC(=O)N4CCC(N5CCCCC5)CC4)cc13)-c1cc3c(c(=O)n1C2)COC(=O)[C@]3(O)CC` [Irinotecan], the mice with tumors is reported as 7/8.
